Assays:
Format in all cases: biochemical
[1] = target: ubiquitin~Cdc34A thioester (Homo sapiens, UniProt P0CG48+P49427, K48R); test: Spontaneous hydrolysis of the ubiquitin~Cdc34A^FL thioester; conditions: 100 μM CC0651
[2] = target: T1, Cdc34A^Glu133Arg (Homo sapiens, UniProt P49427, E133R); test: Sic1-SCF^Cdc4 ubiquitination assay with Cdc34A^Glu133Arg mutant; conditions: Cdc34A^Glu133Arg mutant, wild type ubiquitin
T1 sequence (P49427 1-236 E133R): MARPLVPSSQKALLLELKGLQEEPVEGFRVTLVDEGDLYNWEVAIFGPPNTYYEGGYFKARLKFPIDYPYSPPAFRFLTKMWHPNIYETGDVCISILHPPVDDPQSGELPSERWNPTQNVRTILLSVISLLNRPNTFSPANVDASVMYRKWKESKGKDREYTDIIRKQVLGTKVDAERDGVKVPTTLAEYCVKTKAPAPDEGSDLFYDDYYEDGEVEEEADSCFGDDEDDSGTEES

[3] = target: Cdc34A^Glu133Arg (Homo sapiens, UniProt P49427, E133R); test: as above; conditions: Cdc34A^Glu133Arg mutant with Ub^Arg42Glu mutant

## COCC(=O)N[C@@H](Cc1ccc(-c2cc(Cl)cc(Cl)c2)cc1)[C@H](O)[C@@H](O)C(=O)O [CC0651, (2R,3S,4S)-5-(3′,5′-Dichloro-[1,1′-biphenyl]-4-yl)-2,3-dihydroxy-4-(2 methoxyacetamido)pentanoic acid]
[1]
  Effect on hydrolysis of the ubiquitin~Cdc34A thioester to water: inhibited
[2]
  Sensitivity of Sic1 ubiquitination to CC0651: insensitivity
[3]
  Sensitivity of Sic1 ubiquitination to CC0651: restored
